Earlier results, collected in US20030135108A1, “High throughput screening methods using magnetic resonance imaging agents” (priority 2001, published 2003).

Conditions: thermodynamic stability of the Gd(III) chelate complex

stability constant (K), formation constant, logK	Structure (SMILES)
22.4	O=C([O-])CN(CCN(CC(=O)[O-])CC(=O)[O-])CCN(CC(=O)[O-])CC(=O)[O-].[Gd+3] [Gd(DTPA)^2−]
28.5	O=C([O-])CN1CCN(CC(=O)[O-])CCN(CC(=O)O)CCN(CC(=O)[O-])CC1.[Gd+3] [Gd-DOTA]
